The values below come from patent US20120302614A1, “METHOD FOR IMPROVING CEREBRAL CIRCULATION OR TREATING A CEREBRAL BLOOD FLOW DISORDER” (OSAKA UNIVERSITY, priority 2007, published 2012).

The subject of assay [1] is Aβ injection model (Aβ 1-40 administered intracerebroventricularly). The assay can be described thus: Morris water maze test in Aβ injection model, Test Example 1. In kind it is in vivo, ddY mouse. As to the method: (§1) The therapeutic effect of olmesartan medoxomil in Aβ injection model and the dose dependency thereof were examined according to the following experimental schedule. [Experimental Schedule]: Prior to the experiment, 8-week old male ddY mice were administered olmesartan medoxomil (0.5 mg/kg/day, 1 mg/kg/day, 3 mg/kg/day or 6 mg/kg/day) or distilled water orally for four weeks (day −28 to −1). Then, Aβ 1-40 was administered to the mice intracerebroventricularly (day 0). (Although Aβ 1-40 was administered into one of the lateral ventricles in WO 2006/059777, Aβ 1-40 was administered in Test Example 1 to both lateral ventricles with an interval of one day between two administrations. Except for this point, Aβ 1-40 administration was performed in the same manner as in WO 2006/059777.) From one week thereafter, a behavioral test to evaluate cognitive function (Morris water maze test; Morris R et al., J Neuroscience Methods 1984, 11, 47-60) was performed (day 7 to 12). As a negative control, mice which had received oral administration of distilled water for four weeks were administered Aβ 40-1 intracerebroventricularly. The administration of olmesartan medoxomil or distilled water was continued until the end of the behavioral test. Measurements were performed as described below. • Hidden platform test: A platform is placed below the water surface of a water pool 150 cm in diameter filled with white water-colored. Mice are released into the water, and the time it takes them to reach the platform is measured. This trial is performed three times a day and for five consecutive days. As they learn, mice become able to reach the platform more quickly day by day. • Visible platform test: Mice are released into the water under such conditions that they can see the platform. The time it takes them to reach the platform is measured. • Probe test: The platform is removed, and mice are released and allowed to swim freely. Those mice with good learning/memory swim in the quadrant where the platform was located searching for the platform. The time they spent in that quadrant is measured. • Annnulus crossing: The number of times mice crossed the platform in the probe test is counted.

Assay [2] is described as follows: Blood pressure by tail-cuff method, Test Example 1. In kind it is in vivo, ddY mouse. The protocol: as §1, with “Those mice with good learning/memory swim in the quadrant where the platform was located searching for the platform.” left out, “counted. […]” for “counted.”
Where [3] appears, read: 0.5 mg/kg/day oral, versus Aβ 1-40 administration group.
Where [4] appears, read: 1.0 mg/kg/day oral, versus Aβ 1-40 administration group.

In the case of `CCCc1nc(C(C)(C)O)c(C(=O)OCc2oc(=O)oc2C)n1Cc1ccc(-c2ccccc2-c2nnn[nH]2)cc1` [olmesartan medoxomil, (5-methyl-2-oxo-1,3-dioxolen-4-yl)methyl 4-(1-hydroxy-1-methylethyl)-2-propyl-1-[4-[2-(tetrazol-5-yl)phenyl]phenyl]methyl-imidazole-5-carboxylate], the “hidden platform test: escape latency (impairment in spatial memory and learning ability)” value is recorded as “improved significantly” in assay [1] (setting [3]); “improved significantly” in assay [1] (setting [4]); “improved significantly” in assay [1] (3.0 mg/kg/day oral, versus Aβ 1-40 administration group). Moreover, the “probe test: time spent in the target quadrant” value in assay [1] (setting [3]) and in assay [1] (setting [4]) was “significantly improved” each time. For the same molecule, the “number of annulus crossings” value in assay [1] (setting [4]) is “significantly improved”. Further, the results for the “improvement of impairment in spatial memory and learning evoked by Aβ 1-40” value in assay [1] (high dose groups (3-6 mg/kg/day)) and in assay [1] (low dose groups (0.5-1 mg/kg/day)) were “not observed” and “observed”, respectively. Also, the “cognitive impairment (spatial memory and learning) in Morris water maze test, overall” value in assay [1] (oral administration for four weeks in advance of Aβ 1-40) is “significantly improved”. Further, in assay [2] (after 4-week oral administration (day −1), olmesartan medoxomil administration groups (0.5, 1, 3, 6 mg/kg/day)), the “blood pressure compared to the distilled water administration group” value is “significantly lowered”. Besides, the blood pressure result is reported as “A similar tendency was observed” in assay [2] (immediately after Aβ administration (day 2) and after completion of the behavioral test (day 14)); “significant lowering” in assay [2] (lowest dose 0.5 mg/kg/day oral, after 4-week administration (day −1)).
